Source: patent US20130184222A1, “[…] ACTIVE COMPOSITIONS AND THEIR METHODS OF USE” (AGIOS PHARMACEUTICALS, INC, priority 2010, published 2013)

Assays:
[1] = target: IDH1 R132H (Homo sapiens, UniProt O75874, R132H); assay: In vitro assay for IDH1 R132H inhibitors (NADPH/aKG, resazurin detection); assay type: biochemical; settings: Table 4B; 0.2 μg/ml IDH1 R132H, 50 minutes at room temperature; read-out: IC50, IDH1 R132H Inhibition
Summary of the method: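 Reaction ran 50 min at room temperature in Tris pH 7.5 buffer with 150 mM NaCl, 10 mM MgCl2 and 0.03% BSA. Mix concentrations were 0.2 μg/ml mutant enzyme, 8 uM NADPH and 2 mM aKG. Detection added 30 μM resazurin, with resorufin fluorescence (Ex544/Em590) measured 5 min later.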

[2] = test system: U87MG cells; assay: Cellular assay: inhibition of 2-HG production in U87MG cells (LC-MS, 48 hours); assay type: cell-based; settings: Homo sapiens, U-87 MG, 2-HG in media by LC-MS
Protocol: (§1) Cells (HT1080 or U87MG) were grown in T125 flasks in DMEM containing 10% FBS, 1× penicillin/streptomycin and 500 ug/mL G418 (present in U87MG cells only). They were harvested by trypsin and seeded into 96 well white bottom plates at a density of 5000 cell/well in 100 ul/well in DMEM with 10% FBS. No cells were placed in columns 1 and 12. Cells were incubated overnight at 37° C. in 5% CO2. The next day test compounds were made up at 2× the final concentration and 100 ul were added to each cell well. The final concentration of DMSO was 0.2% and the DMSO control wells were plated in row G. The plates were then placed in the incubator for 48 hours. At 48 hours, 100 ul of media was removed from each well and analyzed by LC-MS for 2-HG concentrations. The cell plate was placed back in the incubator for another 24 hours. At 72 hours post compound addition, 10 mL/plate of Promega Cell Titer Glo reagent was thawed and mixed. The cell plate was removed from the incubator and allowed to equilibrate to room temperature. Then 100 ul of Promega Cell Titer Glo reagent was added to each well of media. The cell plate was then placed on an orbital shaker for 10 minutes and then allowed to sit at room temperature for 20 minutes. The plate was then read for luminescence with an integration time of 500 ms.

[3] = test system: HT1080 cells; assay: Cellular assay: inhibition of 2-HG production in HT1080 cells (LC-MS, 48 hours); assay type: cell-based; settings: Homo sapiens, HT-1080, 2-HG in media by LC-MS
Protocol: as §1

Sequence of IDH1 R132H (O75874 whole entry R132H): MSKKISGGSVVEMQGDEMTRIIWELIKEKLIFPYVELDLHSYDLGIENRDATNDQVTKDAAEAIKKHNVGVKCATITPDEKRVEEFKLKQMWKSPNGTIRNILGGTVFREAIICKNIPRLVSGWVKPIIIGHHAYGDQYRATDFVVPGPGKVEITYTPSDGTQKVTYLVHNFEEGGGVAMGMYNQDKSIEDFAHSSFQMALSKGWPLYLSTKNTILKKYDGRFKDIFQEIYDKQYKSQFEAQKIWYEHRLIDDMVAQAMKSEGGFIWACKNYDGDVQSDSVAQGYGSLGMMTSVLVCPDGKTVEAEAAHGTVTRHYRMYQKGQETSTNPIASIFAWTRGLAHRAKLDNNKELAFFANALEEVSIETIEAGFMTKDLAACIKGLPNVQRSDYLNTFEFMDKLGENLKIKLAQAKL

IC50 [1] | IC50 [2] | IC50 [3] | SMILES
≤ 0.1 µM | 0.25 to 1 µM | 0.25 to 1 µM | O=C(NC1CCCCC1)C(c1ccccc1Cl)N(C(=O)Cc1cscn1)c1cccc(F)c1 (stereo not shown) [Compound 307]
0.1 to 1 µM | 1 to 5 µM | 1 to 5 µM | COC(=O)NCCC(=O)N(c1cccc(F)c1)C(C(=O)NC1CCCCC1)c1ccccc1C (stereo not shown) [Compound 374]
0.1 to 1 µM | 1 to 5 µM | 0.25 to 1 µM | Cc1ccccc1C(C(=O)NC1CCCCC1)N(C(=O)C(=O)c1nccn1C)c1cccc(F)c1 (stereo not shown) [Compound 284]
0.1 to 1 µM | 1 to 5 µM | 1 to 5 µM | CCOC(=O)N1CCCC[C@@H]1C(=O)N(c1cccc(F)c1)[C@H](C(=O)NC1CCCCC1)c1ccccc1C [Compound 345]
0.1 to 1 µM | 1 to 5 µM | 0.25 to 1 µM | Cc1ccccc1[C@@H](C(=O)NC1CCCCC1)N(C(=O)[C@H]1CCCCN1C(=O)OC(C)(C)C)c1cccc(F)c1 [Compound 332]
0.1 to 1 µM | 0.25 to 1 µM | > 5 µM | Cc1ccccc1C(C(=O)NC1CCCCC1)N(Cc1nccs1)C(=O)Cn1ccnc1 (stereo not shown) [Compound 304]
0.1 to 1 µM | – | > 5 µM | Cc1ccccc1C(C(=O)NC1CCCCC1)N(C(=O)CNc1ccc(-c2nnn[nH]2)cc1)c1cccc(F)c1 (stereo not shown) [Compound 285]
0.1 to 1 µM | ≤ 0.25 µM | 1 to 5 µM | Cc1nccn1CC(=O)N(c1cccc(F)c1)C(C(=O)NC1CCCCC1)c1ccccc1 (stereo not shown) [Compound 295]
0.1 to 1 µM | 0.25 to 1 µM | 1 to 5 µM | Cc1ccccc1C(C(=O)NC1CCCCC1)N(C(=O)Cn1cncn1)c1cccc(F)c1 (stereo not shown) [Compound 294]
≤ 0.1 µM | 0.25 to 1 µM | ≤ 0.25 µM | Cc1ccccc1C(C(=O)NC1CCCCC1)N(C(=O)CNc1ccccn1)c1cccc(F)c1 (stereo not shown) [Compound 316]
0.1 to 1 µM | > 5 µM | – | Cc1ccccc1C(C(=O)NC1CCCCC1)N(Cc1cccs1)C(=O)NCc1ccccc1 (stereo not shown) [Compound 388]
≤ 0.1 µM | ≤ 0.25 µM | – | O=C(NC1CCCCC1)[C@@H](c1ccccc1)N(C(=O)Cc1cccs1)c1cccc(F)c1 [Compound 386]
0.1 to 1 µM | – | > 5 µM | CCS(=O)(=O)NCC(=O)N(c1cccc(F)c1)C(C(=O)NC1CCCCC1)c1ccccc1C (stereo not shown) [Compound 367]
0.1 to 1 µM | – | > 5 µM | Cc1ccccc1C(C(=O)NC1CC2CC2C1)N(C(=O)CNc1cccnc1F)c1cccc(F)c1 (stereo not shown) [Compound 377]
1 to 10 µM | > 5 µM | – | Cc1ccccc1C(C(=O)NC1CCCCC1)N(Cc1cccs1)C(=O)OCc1ccccc1 (stereo not shown) [Compound 390]
– | 0.25 to 1 µM | 0.25 to 1 µM | COC(=O)N(C)[C@@H](C)C(=O)N(c1cccc(F)c1)[C@H](C(=O)NC1CCCCC1)c1ccccc1C [Compound 366]
0.1 to 1 µM | – | > 5 µM | Cc1ccccc1C(C(=O)NC1CCCCC1)N(c1cccc(F)c1)S(=O)(=O)Cc1ccccc1 (stereo not shown) [Compound 393]

The remaining lines, values behind:

SMILES | IC50 [1] | IC50 [2] | IC50 [3]
COc1ccc(NCC(=O)N(c2cccc(F)c2)C(C(=O)NC2CCCCC2)c2ccccc2C)cc1 (stereo not shown) [Compound 210] | ≤ 0.1 µM | 1 to 5 µM | 1 to 5 µM
Cc1ccccc1C(C(=O)NC1CCCCC1)N(C(=O)CNCc1ccccn1)c1cccc(F)c1 (stereo not shown) [Compound 172] | 0.1 to 1 µM | 1 to 5 µM | 0.25 to 1 µM
Cc1ccccc1C(C(=O)NC1CCCCC1)N(C(=O)COCc1ccccc1F)c1cccc(F)c1 (stereo not shown) [Compound 222] | 0.1 to 1 µM | 1 to 5 µM | 0.25 to 1 µM
CC(=O)Oc1ccc(CC(=O)N(c2cccc(F)c2)C(C(=O)NC2CCCCC2)c2ccccc2C)cc1 (stereo not shown) [Compound 212] | ≤ 0.1 µM | ≤ 0.25 µM | ≤ 0.25 µM
Cc1ccccc1C(C(=O)NC1CCCCC1)N(C(=O)Cn1ccnc1C)c1cccc(-c2cnn(C)c2)c1 (stereo not shown) [Compound 223] | 0.1 to 1 µM | ≤ 0.25 µM | 0.25 to 1 µM
Cc1ccccc1C(C(=O)NC1CCCCC1)N(C(=O)C(=O)NCc1ccncc1)c1cccc(F)c1 (stereo not shown) [Compound 270] | 0.1 to 1 µM | 1 to 5 µM | 1 to 5 µM
Cc1nccn1CC(=O)N(c1cccc(F)c1)[C@H](C(=O)NC1CCCCC1)c1ccccc1 [Compound 239] | 0.1 to 1 µM | ≤ 0.25 µM | 0.25 to 1 µM
COc1cccc(CNCC(=O)N(c2cccc(F)c2)C(C(=O)NC2CCCCC2)c2ccccc2C)c1 (stereo not shown) [Compound 221] | 0.1 to 1 µM | 1 to 5 µM | 1 to 5 µM
Cc1ccccc1C(C(=O)NC1CCCCC1)N(Cc1cccs1)C(=O)Cn1ccnc1C (stereo not shown) [Compound 176] | 0.1 to 1 µM | ≤ 0.25 µM | 1 to 5 µM
Cc1ccccc1C(C(=O)NC1CCCCC1)N(C(=O)CNc1ccc(S(C)(=O)=O)cc1)c1cccc(F)c1 (stereo not shown) [Compound 258] | 0.1 to 1 µM | 0.25 to 1 µM | 0.25 to 1 µM
Cc1ccccc1C(C(=O)NC1CCCCC1)N(Cc1cccs1)C(=O)Cc1c[nH]c2ncccc12 (stereo not shown) [Compound 213] | ≤ 0.1 µM | 0.25 to 1 µM | 0.25 to 1 µM
Cc1ccccc1C(C(=O)NC1CCCCC1)N(C(=O)CN1Cc2ccccc2C1)c1cccc(F)c1 (stereo not shown) [Compound 188] | 0.1 to 1 µM | 0.25 to 1 µM | –
Cc1ccccc1C(C(=O)NC1CC2CCC1C2)N(C(=O)Cc1cccs1)c1cccc(F)c1 (stereo not shown) [Compound 186] | ≤ 0.1 µM | 0.25 to 1 µM | –
Cc1ccccc1C(C(=O)NC1CCCCC1)N(C(=O)Cn1cnc2ccccc21)c1cccc(F)c1 (stereo not shown) [Compound 135] | ≤ 0.1 µM | 0.25 to 1 µM | –
Cc1ccccc1C(C(=O)NC1CCCCC1)N(C(=O)COCc1ccc(F)cc1)c1cccc(F)c1 (stereo not shown) [Compound 214] | 0.1 to 1 µM | – | > 5 µM
Cc1ccccc1C(C(=O)NC1CCCCC1)N(C(=O)CNC1CCOCC1)c1cccc(F)c1 (stereo not shown) [Compound 181] | 0.1 to 1 µM | 1 to 5 µM | –
Cc1ccccc1C(C(=O)NC1CCCCC1)N(C(=O)Cc1c[nH]c2ccccc12)c1cccc(F)c1 (stereo not shown) [Compound 126] | ≤ 0.1 µM | ≤ 0.25 µM | –
Cc1ccccc1C(C(=O)NC1CCCCC1)N(C(=O)COCc1cccc(F)c1)c1cccc(F)c1 (stereo not shown) [Compound 234] | 0.1 to 1 µM | – | 1 to 5 µM

SMILES | IC50 [1] | IC50 [2] | IC50 [3]
Cc1ccccc1C(C(=O)NC1CCCCC1)N(C(=O)CSC(=N)N)c1cccc(F)c1 (stereo not shown) [Compound 163] | 0.1 to 1 µM | > 5 µM | –
Cc1ccccc1C(C(=O)NC1CCCCC1)N(C(=O)CN(C)c1ccccc1)c1cccc(F)c1 (stereo not shown) [Compound 161] | ≤ 0.1 µM | 0.25 to 1 µM | –
Cc1ccccc1C(C(=O)NC1CCCCC1)N(Cc1cccs1)C(=O)CNc1ccc(F)cc1 (stereo not shown) [Compound 207] | 0.1 to 1 µM | – | 1 to 5 µM
Cc1ccccc1C(C(=O)NC1CCCCC1)N(C(=O)CNCc1cccnc1)c1cccc(F)c1 (stereo not shown) [Compound 174] | 0.1 to 1 µM | 1 to 5 µM | –
Cc1ccccc1C(C(=O)NC1CCCCC1)N(C(=O)COc1cccc(F)c1)c1cccc(F)c1 (stereo not shown) [Compound 189] | 0.1 to 1 µM | > 5 µM | –
Cc1ccccc1C(C(=O)NC1CCCCC1)N(C(=O)COc1ccc(F)cc1)c1cccc(F)c1 (stereo not shown) [Compound 194] | 0.1 to 1 µM | – | 0.25 to 1 µM
Cc1ccccc1C(C(=O)NC1CCCCC1)N(C(=O)COc1ccccc1F)c1cccc(F)c1 (stereo not shown) [Compound 196] | 0.1 to 1 µM | – | 0.25 to 1 µM
Cc1ccccc1C(C(=O)NC1CCCCC1)N(C(=O)CNC1COC1)c1cccc(F)c1 (stereo not shown) [Compound 170] | 0.1 to 1 µM | 1 to 5 µM | –
Cc1ccccc1C(C(=O)NC1CCOCC1)N(C(=O)CN1CCCc2ccccc21)c1cccc(F)c1 (stereo not shown) [Compound 179] | 0.1 to 1 µM | 1 to 5 µM | –
Cc1ccccc1C(C(=O)NC1CCC1)N(C(=O)Cc1cccs1)c1cccc(F)c1 (stereo not shown) [Compound 178] | 0.1 to 1 µM | 0.25 to 1 µM | –
Cc1ccccc1C(C(=O)NC1CCCCC1)N(C(=O)CNCCc1ccccc1)c1cccc(F)c1 (stereo not shown) [Compound 154] | 0.1 to 1 µM | 1 to 5 µM | –
Cc1ccccc1C(C(=O)NC1CCCCC1)N(Cc1cccs1)C(=O)CN(C)c1ccccc1 (stereo not shown) [Compound 182] | 0.1 to 1 µM | 1 to 5 µM | –
Cc1ccccc1C(C(=O)NC1CCCCC1)N(C(=O)COC1CCCCC1F)c1cccc(F)c1 (stereo not shown) [Compound 235] | 0.1 to 1 µM | – | 1 to 5 µM
Cc1ccccc1C(C(=O)NC1CCCCC1)N(C(=O)CNc1ccccc1F)c1cccc(F)c1 (stereo not shown) [Compound 242] | 0.1 to 1 µM | – | 1 to 5 µM
Cc1ccccc1C(C(=O)NC1CCOCC1)N(C(=O)CN(C)c1ccccc1)c1cccc(F)c1 (stereo not shown) [Compound 183] | 0.1 to 1 µM | 1 to 5 µM | –
Cc1ccccc1C(C(=O)NC1CCCCC1)N(Cc1cccs1)C(=O)CN1Cc2ccccc2C1 (stereo not shown) [Compound 187] | 0.1 to 1 µM | 1 to 5 µM | –
Cc1ccccc1C(C(=O)NC1CCCCC1)N(C(=O)Cc1cscn1)c1cccc(F)c1 (stereo not shown) [Compound 158] | 0.1 to 1 µM | 0.25 to 1 µM | –
